Measurements taken from the NIST ThermoML archive (doi:10.1016/j.jct.2004.12.003).
± gives the expanded uncertainty stated by the source.

Tests used:
[1] = refractive index (Na D-line) (dimensionless); conditions: 293.15 K; 101.33 kPa; Liquid; Standard Abbe refractometry
[2] = Liquid; for mass density: 293.15 K, 101.33 kPa

| SMILES | refractive index [1] | mass density [2] [kg/m3] | Normal boiling temperature [2] [°C] |
| --- | --- | --- | --- |
| COC(=O)c1ccccc1C(=O)OC [dimethyl 1,2-benzenedicarboxylate] | 1.514 ± 0.0011 | 1191 ± 0.8 | 283.93 ± 0.08 |
| CCC(=O)O [propanoic acid] | 1.3811 ± 0.0011 | 992.7 ± 0.5 | 141.0 ± 0.08 |
